From article PMC9917184, “Synthesis and Biological Evaluation of Potential Oncoimmunomodulator Agents” (International Journal of Molecular Sciences, 2023)
Read-outs that look alike come from different tables or passages of the source.

Experiments:
c-Myc = test: Total c-Myc relative quantification by flow cytometry in cancer cell lines; format: cell-based, human; conditions: 24 h; for c-Myc inhibition rate: A-549, 100 μM
Experimental: (§1) The effect of these triazole derivates on c-Myc and PD-L1 was measured in three different cancer cell lines (HT-29, MCF-7, A-549) by flow cytometry. Thus, cells were incubated for 24 h with the corresponding compound at a concentration of 100 μM. Dimethyl sulfoxide (DMSO)-treated cells were used as the negative control, and a PD-L1 inhibitor, BMS-8 [29, 31], was used as a reference control. After permeabilization and fixation, cells were treated with anti-PD-L1 conjugated to AlexaFluor®647 and anti-c-Myc conjugated to fluorescein to determine the amount of both targets related to the negative control. Table 1 show the results in terms of the percentage of the detected target in relation to the negative control. This assay was carried out on cancer cell lines HT-29, MCF-7, and A-549.
(§2) To study the effect of the compounds on every biological target in cancer cell lines, the compounds were used at a 100 µM dose.
(§3) For the assay, 10^5 cells per well were incubated for 24 h with the corresponding dose of the tested compound in a total volume of 500 μL of their growth media.
(§4) To detect total PD-L1 and c-Myc, after the cell treatments, they were collected and fixed with 4% in PBS paraformaldehyde. After fixation, a treatment with 0,5% in PBS Triton™ X-100 was performed, and finally, cells were stained with FITC Mouse monoclonal Anti-c-Myc (ab223913) and Alexa Fluor® 647 Rabbit monoclonal Anti-PD-L1 (ab215251).

membrane VEGFR-2 = test: Membrane VEGFR-2 relative quantification by flow cytometry in cancer cells co-cultured with Jurkat T cells; format: cell-based, human; conditions: 100 μM, 24 h, relative to non-treated co-cultures
Experimental: (§5) We determined by flow cytometry the effect of these compounds on the expression of membrane PD-L1 in cancer cells when they were co-cultured with immune cells. Thus, interferon γ-stimulated cancer cells were treated for 24 h with the compounds at 100 μM in presence of Jurkat T cells. Then, cells were fixed and treated with anti-PD-L1 conjugated to AlexaFluor®647. We took advantage of the versatility of flow cytometry to simultaneously measure the expression of membrane VEGFR-2 by using anti-VEGFR-2 conjugated to fluorescein.
(§6) To study the effect of the compounds on every biological target in co-cultured cancer cell lines, the compounds were incubated for 24h as described before.
(§7) To detect membrane PD-L1 and VEGFR-2, after the cell treatments, they were collected, fixed with 4% in PBS paraformaldehyde, and stained with FITC Mouse monoclonal Anti-Human VEGFR-2 (ab184903) and Alexa Fluor® 647 Rabbit monoclonal Anti-PD-L1 (ab215251).

PD-L1 = PD-L1 (Homo sapiens, UniProt Q9NZQ7); test: Total PD-L1 relative quantification by flow cytometry in cancer cell lines; format: cell-based; parameters: Alexa Fluor® 647 Rabbit monoclonal Anti-PD-L1 (ab215251); endogenous in cells; host or cells: HT-29; conditions: 24 h, total PD-L1 relative to negative control (DMSO)
Experimental: as §1, §2, §3, §4

A-549 = A-549 cell viability in co-culture with Jurkat T cells (flow cytometry count); format: cell-based, human; conditions: 24 h; for viability at 100 µM: Homo sapiens, A549, A-549/Jurkat T co-culture, IFN-γ stimulated, read-out: percentage of living A-549 cells relative to non-treated co-cultures; for inhibition rate of A-549 cell viability: co-cultured with Jurkat T cells, 100 μM
Experimental: (§8) The effect of the synthesized compounds on tumor cell proliferation in the presence of PD-1-expressing Jurkat T cells was also studied. This assay was carried out, as in the previous experiments, in the HT29, MCF7, and A549 cell lines (see Table 4). Interferon γ-stimulated cancer cells were treated for 24 h with the compounds at 100 μM in presence of Jurkat T cells. Then, cells were counted using flow cytometry. The percentage of living cells relative to non-treated co-cultures (control) was established for both cancer and immune cells in every co-culture.
(§9) To study the effect of the compounds on the cell viability in co-culture with Jurkat T cells or THP-1 cells, 10^5 or 2 × 10^5 of the corresponding cancer cells line per well were seeded and incubated for 24 h, then the medium was changed by one cell culture medium supplemented with IFN-γ (10 ng/mL; human, Invitrogen®) and containing 5 × 10^5 or 10^5 Jurkat T cells or THP-1, respectively, per well and 100 µM of the corresponding compound or DMSO for the […] control. After 24 h/48 h of incubation, supernatants were collected to determine Jurkat T or THP-1 living cells, and on the other hand, corresponding cancer cells were collected with trypsin. Both types of suspension cells were fixed with 4% in PBS paraformaldehyde and counted by flow cytometry.

membrane PD-L1 = target: T1, membrane PD-L1 (Homo sapiens, UniProt Q9NZQ7); test: Membrane PD-L1 relative quantification by flow cytometry in cancer cells co-cultured with Jurkat T cells; format: cell-based; conditions: Jurkat, 24 h; for remaining activity at 100 µM: relative to non-treated co-cultures, read-out: % PDL1 (membrane); for inhibition at 100 µM: HT-29 co-cultured with Jurkat T cells, read-out: membrane PD-L1 inhibition rate
T1 construct: Alexa Fluor® 647 Rabbit monoclonal Anti-PD-L1 (ab215251); endogenous in cells; host or cells: HT-29, MCF-7, A-549 (A17: MCF-7 only; A14: IFN-gamma-stimulated cancer cells co-cultured with Jurkat T cells)
Experimental: as §5, §6, §7

Jurkat T cells = test: Jurkat T cell viability in co-culture with cancer cells (flow cytometry count); format: cell-based; conditions: Homo sapiens, 24 h, read-out: percentage of living Jurkat cells relative to non-treated co-cultures
Experimental: as §8, §9

MCF-7 = MCF-7 cell viability in co-culture with Jurkat T cells (flow cytometry count); format: cell-based, human; conditions: 24 h; for viability at 100 µM: Homo sapiens, MCF7, MCF-7/Jurkat T co-culture, IFN-γ stimulated, read-out: percentage of living MCF-7 cells relative to non-treated co-cultures
Experimental: as §8, §9

HT-29 = HT-29 cell viability in co-culture with Jurkat T cells (flow cytometry count); format: cell-based, human; conditions: 24 h; for viability at 100 µM: Homo sapiens, HT-29/Jurkat T co-culture, IFN-γ stimulated, read-out: percentage of living HT-29 cells relative to non-treated co-cultures
Experimental: as §8, §9

[1] = A-549, 100 µM, relative to negative control (DMSO)
[2] = HT-29, 100 µM, detected target relative to negative control (DMSO)
[3] = MCF-7, 100 µM, relative to negative control (DMSO)
[4] = A549 co-cultured with Jurkat T cells
[5] = HT29 co-cultured with Jurkat T cells
[6] = MCF7 co-cultured with Jurkat T cells
[7] = co-cultured with Jurkat T cells, 100 μM

PD-L1, sequence (Q9NZQ7 19-290): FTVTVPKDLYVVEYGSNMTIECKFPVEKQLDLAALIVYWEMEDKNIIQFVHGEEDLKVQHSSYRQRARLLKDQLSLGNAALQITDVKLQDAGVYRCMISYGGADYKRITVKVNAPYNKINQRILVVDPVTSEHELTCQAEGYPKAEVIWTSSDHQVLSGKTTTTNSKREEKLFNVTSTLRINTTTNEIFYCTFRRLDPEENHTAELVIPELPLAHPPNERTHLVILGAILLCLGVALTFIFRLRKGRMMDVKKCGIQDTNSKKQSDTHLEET
T1 sequence (Q9NZQ7 19-290): as above

| Compound | % c-Myc (c-Myc; [1]) [%] | % c-Myc (c-Myc; [2]) [%] | % c-Myc (c-Myc; [3]) [%] | %VEGFR2 (membrane) (membrane VEGFR-2; [4]) [%] | %VEGFR2 (membrane) (membrane VEGFR-2; [5]) [%] | %VEGFR2 (membrane) (membrane VEGFR-2; [6]) [%] | remaining activity at 100 µM (PD-L1; A549, A-549, 100 µM) [%] | remaining activity at 100 µM (PD-L1; HT-29, 100 µM) [%] | remaining activity at 100 µM (PD-L1; MCF7, MCF-7, 100 µM) [%] | viability at 100 µM (A-549) [%] | inhibition rate of A-549 cell viability (A-549) | remaining activity at 100 µM (membrane PD-L1; [4]) [%] | remaining activity at 100 µM (membrane PD-L1; [5]) [%] | remaining activity at 100 µM (membrane PD-L1; [6]) [%] | inhibition at 100 µM (membrane PD-L1) [%] | viability at 100 µM (Jurkat T cells; A-549/Jurkat T co-culture) [%] | viability at 100 µM (Jurkat T cells; HT-29/Jurkat T co-culture) [%] | viability at 100 µM (Jurkat T cells; MCF-7/Jurkat T co-culture) [%] | viability at 100 µM (MCF-7) [%] | viability at 100 µM (HT-29) [%] | further results |
| --- | --- | --- | --- | --- | --- | --- | --- | --- | --- | --- | --- | --- | --- | --- | --- | --- | --- | --- | --- | --- | --- |
| OCCc1ccc(CCn2cc(-c3ccc(Br)cc3)nn2)cc1 [Compound 4, 2-(4-(2-(4-(4-bromophenyl)-1H-1,2,3-triazol-1-yl)ethyl)phenyl)ethan-1-ol] | 95 ± 2 | 108 ± 8 | 91 ± 8 | 99 ± 4 | 94 ± 3 | 121 ± 19 | 55 ± 8 | 111 ± 8 | 237 ± 19 | 79 ± 5 | around 30% | 80 ± 3 | 54 ± 3 | 89 ± 3 | 40 to 50 | 122 ± 11 | 145 ± 9 | 218 ± 69 | 87 ± 6 | 115 ± 14 | inhibition rate of HT-29 cell viability (HT-29; [7]): not active |
| COc1ccc(-c2cn(CCc3ccc(CCO)cc3)nn2)cc1 [Compound 10, 2-(4-(2-(4-(4-methoxyphenyl)-1H-1,2,3-triazol-1-yl)ethyl)phenyl)ethan-1-ol] | 126 ± 2 | 83 ± 8 | 91 ± 6 | 107 ± 1 | 94 ± 6 | 105 ± 3 | 62 ± 14 | 82 ± 2 | 114 ± 9 | 103 ± 4 | no activity | 84 ± 6 | 126 ± 7 | 48 ± 7 | – | 100 ± 4 | 120 ± 23 | 148 ± 20 | 94 ± 2 | 145 ± 16 | – |
| COc1ccc(C(OCCc2ccc(CCn3cc(-c4ccccc4OC)nn3)cc2)(c2ccccc2)c2ccc(OC)cc2)cc1 [Compound 13, 1-(4-(2-(bis(4-methoxyphenyl)(phenyl)methoxy)ethyl)phenethyl)-4-(2-methoxyphenyl)-1H-1,2,3-triazole] | 51 ± 2 | 68 ± 3 | 77 ± 5 | 80 ± 8 | 89 ± 2 | 120 ± 8 | 120 ± 5 | 102 ± 1 | 87 ± 6 | 103 ± 4 | – | 83 ± 6 | 57 ± 12 | 33 ± 4 | 40 to 50 | 90 ± 2 | 110 ± 9 | 79 ± 5 | 43 ± 1 | 153 ± 15 | c-Myc inhibition rate (c-Myc): 50%; inhibition rate of MCF-7 cell viability (MCF-7; [7]): around 60% |
| COc1ccc(C(OCCc2ccc(CCn3cc(-c4ccccc4)nn3)cc2)(c2ccccc2)c2ccc(OC)cc2)cc1 [Compound 1, 1-(4-(2-(bis(4-methoxyphenyl)(phenyl)methoxy)ethyl)phenethyl)-4-phenyl-1H-1,2,3-triazole] | 182 ± 27 | 135 ± 5 | 73 ± 1 | 79 ± 7 | 85 ± 0 | 76 ± 1 | 63 ± 16 | 85 ± 3 | 90 ± 8 | 127 ± 1 | – | 96 ± 9 | 143 ± 48 | 109 ± 9 | – | 88 ± 18 | 108 ± 6 | 86 ± 13 | 56 ± 6 | 81 ± 12 | – |
| COc1ccc(-c2cn(CCc3ccc(CCOC(c4ccccc4)(c4ccc(OC)cc4)c4ccc(OC)cc4)cc3)nn2)cc1 [Compound 9, 1-(4-(2-(bis(4-methoxyphenyl)(phenyl)methoxy)ethyl)phenethyl)-4-(4-methoxyphenyl)-1H-1,2,3-triazole] | 61 ± 3 | 71 ± 10 | 88 ± 4 | 92 ± 3 | 76 ± 13 | 76 ± 10 | 92 ± 21 | 57 ± 8 | 89 ± 5 | 106 ± 1 | no activity | 82 ± 2 | 63 ± 11 | 40 ± 5 | 40 to 50 | 462 ± 99 | 56 ± 18 | 84 ± 17 | 69 ± 9 | 51 ± 17 | c-Myc inhibition rate (c-Myc): 40% |
